Measured values as given in patent US11529367B2, “Radiation damage protective agent” (MiZ Company Limited, priority 2016, dated 2022).

System: cancer patients subjected to IMRT irradiation (bone marrow damage by radiation)
Conditions: mean±SE, n=16, before treatment taken as 1
Protocol: These patients were subjected to IMRT irradiation integrated with a computed tomograph (CT). Irradiation was in principle performed on a schedule of once a day, five times per week, and this schedule was repeated. Radiation was applied at 1 to 5 locations for 5 to 20 minutes once, and the number of times irradiation was performed was 5 to 20.
These patients were housed in a hyperbaric capsule (APF 2, 700×1900 mm; oxygen concentration: 28% by volume; Air Press Co., Ltd.) at 1.35 atm for 30 minutes after each irradiation with radiation to alleviate the adverse effects.
In addition, 16 patients (8 males and 8 females) who had visited from April 2016 until November 2016 were included in the hydrogen group. These patients were housed in the capsule similar to the above-mentioned capsule except that a hydrogen gas inhaler (MHG-44280, MiZ Company Limited), which generates approximately 6.5% by volume of hydrogen gas (4 L/min) by electrolysis of water, was connected in series with and upstream the air intake of the pressurizing device for the hyperbaric capsule provided outside the capsule, so as to feed high-pressure air containing hydrogen gas into the capsule, while the patients were allowed to inhale, via the nasal cannula, for 30 minutes, 4% by volume to 6% by volume of hydrogen gas (4 L/min) carried through a Y-shaped tube by which the air outlets of two hydrogen gas inhalers (MHG-2070 and MHG-2140, MiZ Company Limited) provided in the capsule were connected in parallel. The hydrogen gas concentration in the ceiling portion of the capsule was approximately 0.2% by volume.
Blood samples were taken periodically from both groups of patients before, during and after radiation treatment. The analysis items of blood were the white blood cell count (WBC), red blood cell count (RBC), hemoglobin level (Hb), hematocrit level (Ht) and platelet count (PLT), and these were used as indicators for hematopoietic function.

[1] = 4-6% by volume hydrogen gas inhaled 30 min in hyperbaric capsule at 1.35 atm, no significant difference vs control

[HH] [H2, hydrogen gas]
WBC ratio: relative value of the white blood cell count (WBC) immediately after radiation treatment to the WBC before radiation treatment (4-6% by volume hydrogen gas inhaled 30 min in hyperbaric capsule at 1.35 atm after each irradiation, p<0.01 vs control): 0.612±0.088
Hb ratio: relative value of the hemoglobin level (Hb) immediately after radiation treatment to the Hb before radiation treatment [1]: 0.966±0.029
Ht ratio: relative value of the hematocrit level (Ht) immediately after radiation treatment to the Ht before radiation treatment [1]: 0.953±0.027
RBC ratio: relative value of the red blood cell count (RBC) immediately after radiation treatment to the RBC before radiation treatment [1]: 0.985±0.027
PLT ratio: relative value of the platelet count (PLT) immediately after radiation treatment to the PLT before radiation treatment (4-6% by volume hydrogen gas inhaled 30 min in hyperbaric capsule at 1.35 atm, p<0.05 vs control): 0.752±0.130
